Measured values from patent US10323022B2, “Pyrrolidinyl urea, pyrrolidinyl thiourea and pyrrolidinyl guanidine compounds as TrkA kinase inhibitors” (Array BioPharma Inc., priority 2011, dated 2019).

target: TrkA (Homo sapiens (Human), UniProt P04629); test: TrkA Omnia Assay; assay type: biochemical; conditions: averaged IC50; 20 nM enzyme, 500 μM ATP, 10 μM peptide substrate
In short: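 Continuous fluorescent kinase read-out (ex 360 nm, em 485 nm) over 70 min, with initial rates fitted to 4- or 5-parameter logistic curves for IC50. Final conditions: 500 μM ATP, 10 μM Omnia Tyr Peptide #4, 20 nM TrkA, MOPS pH 7.5 buffer with MgCl2 and Triton X-100; enzyme and compound preincubated 10 min at ambient temperature.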

Chain of TrkA (P04629 33-796): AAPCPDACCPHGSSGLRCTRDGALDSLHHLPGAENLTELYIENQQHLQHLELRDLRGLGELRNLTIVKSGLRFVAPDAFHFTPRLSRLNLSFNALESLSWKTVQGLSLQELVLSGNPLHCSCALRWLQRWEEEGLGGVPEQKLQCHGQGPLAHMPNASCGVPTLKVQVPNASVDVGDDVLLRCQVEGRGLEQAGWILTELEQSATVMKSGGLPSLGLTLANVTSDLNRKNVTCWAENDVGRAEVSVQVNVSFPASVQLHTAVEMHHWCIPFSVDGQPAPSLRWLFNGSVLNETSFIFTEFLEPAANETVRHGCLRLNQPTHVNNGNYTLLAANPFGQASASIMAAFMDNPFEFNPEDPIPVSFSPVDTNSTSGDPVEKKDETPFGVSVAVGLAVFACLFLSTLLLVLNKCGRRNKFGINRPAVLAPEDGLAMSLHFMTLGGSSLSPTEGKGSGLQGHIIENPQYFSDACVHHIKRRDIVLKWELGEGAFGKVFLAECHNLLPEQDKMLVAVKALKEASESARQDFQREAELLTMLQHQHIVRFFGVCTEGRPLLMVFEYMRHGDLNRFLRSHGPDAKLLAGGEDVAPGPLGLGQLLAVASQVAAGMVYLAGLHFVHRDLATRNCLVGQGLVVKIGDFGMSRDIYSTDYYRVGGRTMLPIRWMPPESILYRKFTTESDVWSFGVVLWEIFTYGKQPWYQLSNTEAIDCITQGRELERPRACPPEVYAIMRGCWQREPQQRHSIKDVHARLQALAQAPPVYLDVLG

| SMILES | IC50 [nM] |
| --- | --- |
| COCCN1C[C@@H](NC(=O)Nc2c(Cl)c(OC[C@@H](C)O)nn2-c2ccccc2)[C@H](c2ccc(F)cc2)C1 [Example 374, 1-(4-chloro-3-((R)-2-hydroxypropoxy)-1-phenyl-1H-pyrazol-5-yl)-3-((3S,4R)-4-(4-fluorophenyl)-1-(2-methoxyethyl)pyrrolidin-3-yl)urea] | < 100 |
| COCCN1C[C@@H](NC(=O)Nc2c(Br)c(OC[C@@H](C)O)nn2-c2ccccc2)[C@H](c2ccc(F)c(F)c2)C1 [Example 375, 1-(4-bromo-3-((R)-2-hydroxypropoxy)-1-phenyl-1H-pyrazol-5-yl)-3-((3S,4R)-4-(3,4-difluorophenyl)-1-(2-methoxyethyl)pyrrolidin-3-yl)urea] | < 100 |
| COCCN1C[C@@H](NC(=O)Nc2c(Br)c(OC[C@@H](C)O)nn2-c2ccccc2)[C@H](c2cc(F)cc(F)c2)C1 [Example 376, 1-(4-bromo-3-((R)-2-hydroxypropoxy)-1-phenyl-1H-pyrazol-5-yl)-3-((3S,4R)-4-(3,5-difluorophenyl)-1-(2-methoxyethyl)pyrrolidin-3-yl)urea] | < 100 |
| COCCN1C[C@@H](NC(=O)Nc2c(Br)c(OC[C@@H](C)O)nn2-c2ccccc2)[C@H](c2ccc(F)cc2)C1 [Example 377, 1-(4-bromo-3-((R)-2-hydroxypropoxy)-1-phenyl-1H-pyrazol-5-yl)-3-((3S,4R)-4-(4-fluorophenyl)-1-(2-methoxyethyl)pyrrolidin-3-yl)urea] | < 100 |
| CC[C@@H](O)COc1nn(-c2ccccc2)c(NC(=O)N[C@@H]2CN(CCOC)C[C@H]2c2cc(F)cc(F)c2)c1C [Example 378, 1-((3S,4R)-4-(3,5-difluorophenyl)-1-(2-methoxyethyl)pyrrolidin-3-yl)-3-(3-((R)-2-hydroxybutoxy)-4-methyl-1-phenyl-1H-pyrazol-5-yl)urea] | < 100 |
| CC[C@@H](O)COc1nn(-c2ccccc2)c(NC(=O)N[C@@H]2CN(CCOC)C[C@H]2c2ccc(F)cc2)c1C [Example 379, 1-((3S,4R)-4-(4-fluorophenyl)-1-(2-methoxyethyl)pyrrolidin-3-yl)-3-(3-((R)-2-hydroxybutoxy)-4-methyl-1-phenyl-1H-pyrazol-5-yl)urea] | < 100 |
| CC[C@@H](O)COc1nn(-c2ccccc2)c(NC(=O)N[C@@H]2CN(CCOC)C[C@H]2c2ccc(F)c(F)c2)c1C [Example 380, 1-((3S,4R)-4-(3,4-difluorophenyl)-1-(2-methoxyethyl)pyrrolidin-3-yl)-3-(3-((R)-2-hydroxybutoxy)-4-methyl-1-phenyl-1H-pyrazol-5-yl)urea] | < 100 |
| CCOC(=O)c1nn(-c2ccccc2)c(NC(=O)N[C@@H]2CN(CCOC)C[C@H]2c2ccc(F)c(F)c2)c1Br [Example 381, ethyl 4-bromo-5-(3-((3S,4R)-4-(3,4-difluorophenyl)-1-(2-methoxyethyl)pyrrolidin-3-yl)ureido)-1-phenyl-1H-pyrazole-3-carboxylate] | < 100 |
| COCCN1C[C@@H](NC(=O)Nc2c(C)c(-c3cnn(CCOC)c3)nn2-c2ccccc2)[C@H](c2ccc(F)cc2)C1 [Example 382, 1-((3S,4R)-4-(4-fluorophenyl)-1-(2-methoxyethyl)pyrrolidin-3-yl)-3-(1′-(2-methoxyethyl)-4-methyl-1-phenyl-1H,1′H-[3,4′-bipyrazol]-5-yl)urea] | < 100 |
| COCCN1C[C@@H](NC(=O)Nc2c(C)c(-c3cnn(CCOC)c3)nn2-c2ccccc2)[C@H](c2cccc(F)c2)C1 [Example 383, 1-((3S,4R)-4-(3-fluorophenyl)-1-(2-methoxyethyl)pyrrolidin-3-yl)-3-(1′-(2-methoxyethyl)-4-methyl-1-phenyl-1H,1′H-[3,4′-bipyrazol]-5-yl)urea] | < 100 |
| COCCN1C[C@@H](NC(=O)Nc2c(C)c(-c3cnn(C)n3)nn2-c2ccccc2)[C@H](c2cccc(F)c2)C1 [Example 384, 1-((3S,4R)-4-(3-fluorophenyl)-1-(2-methoxyethyl)pyrrolidin-3-yl)-3-(4-methyl-3-(2-methyl-2H-1,2,3-triazol-4-yl)-1-phenyl-1H-pyrazol-5-yl)urea] | < 100 |
| COCCN1C[C@@H](NC(=O)Nc2c(C)c(-c3cnn(C)n3)nn2-c2ccccc2)[C@H](c2ccc(F)cc2)C1 [Example 385, 1-((3S,4R)-4-(4-fluorophenyl)-1-(2-methoxyethyl)pyrrolidin-3-yl)-3-(4-methyl-3-(2-methyl-2H-1,2,3-triazol-4-yl)-1-phenyl-1H-pyrazol-5-yl)urea] | < 100 |
| COCCN1C[C@@H](NC(=O)Nc2c(C)c(OCCN3CCOCC3)nn2-c2ccccc2)[C@H](c2ccc(F)c(F)c2)C1 [Example 386, 1-((3S,4R)-4-(3,4-difluorophenyl)-1-(2-methoxyethyl)pyrrolidin-3-yl)-3-(4-methyl-3-(2-morpholinoethoxy)-1-phenyl-1H-pyrazol-5-yl)urea] | < 100 |
| COCCN1C[C@@H](NC(=O)Nc2c(C)c(OCCN3C(=O)c4ccccc4C3=O)nn2-c2ccccc2)[C@H](c2ccc(F)c(F)c2)C1 [Example 387, 1-((3S,4R)-4-(3,4-difluorophenyl)-1-(2-methoxyethyl)pyrrolidin-3-yl)-3-(3-(2-(1,3-dioxoisoindolin-2-yl)ethoxy)-4-methyl-1-phenyl-1H-pyrazol-5-yl)urea] | < 100 |
| COCCN1C[C@@H](NC(=O)Nc2c(C)c(OCCN3CCN(C(=O)OC(C)(C)C)CC3)nn2-c2ccccc2)[C@H](c2ccc(F)c(F)c2)C1 [Example 388, tert-butyl 4-(2-((5-(3-((3S,4R)-4-(3,4-difluorophenyl)-1-(2-methoxyethyl)pyrrolidin-3-yl)ureido)-4-methyl-1-phenyl-1H-pyrazol-3-yl)oxy)ethyl)piperazine-1-carboxylate] | < 100 |
| COCCN1C[C@@H](NC(=O)Nc2c3ccccc3nn2-c2ccccc2)[C@H](c2ccccc2)C1 [Example 389] | < 100 |
| COCCN1C[C@@H](NC(=O)Nc2c3ccccc3nn2-c2ccccc2)[C@H](c2ccc(F)c(F)c2)C1 [Example 390, 1-((3S,4R)-4-(3,4-difluorophenyl)-1-(2-methoxyethyl)pyrrolidin-3-yl)-3-(2-phenyl-2H-indazol-3-yl)urea] | < 100 |
| COCCN1C[C@@H](NC(=O)Nc2c(C)c(OCc3ncn(C)n3)nn2-c2ccccc2)[C@H](c2ccc(F)c(F)c2)C1 [Example 391, 1-((3S,4R)-4-(3,4-difluorophenyl)-1-(2-methoxyethyl)pyrrolidin-3-yl)-3-(4-methyl-3-((1-methyl-1H-1,2,4-triazol-3-yl)methoxy)-1-phenyl-1H-pyrazol-5-yl)urea] | < 100 |

Results, then the compound that gave them:

| IC50 [nM] | SMILES |
| --- | --- |
| < 100 | COCCN1C[C@@H](NC(=O)Nc2c(C)c(OC[C@@H](C)O)nn2-c2ccccc2)[C@H](c2ccc(F)c(F)c2)C1 [Example 365, 1-((3S,4R)-4-(3,4-difluorophenyl)-1-(2-methoxyethyl)pyrrolidin-3-yl)-3-(3-((R)-2-hydroxypropoxy)-4-methyl-1-phenyl-1H-pyrazol-5-yl)urea] |
| < 100 | COCCN1C[C@@H](NC(=O)Nc2c(C)c(OC[C@@H](C)O)nn2-c2ccccc2)[C@H](c2cc(F)cc(F)c2)C1 [Example 366, 1-((3S,4R)-4-(3,5-difluorophenyl)-1-(2-methoxyethyl)pyrrolidin-3-yl)-3-(3-((R)-2-hydroxypropoxy)-4-methyl-1-phenyl-1H-pyrazol-5-yl)urea] |
| < 100 | COCCN1C[C@@H](NC(=O)Nc2c(C)c(OC[C@@H](O)C(F)(F)F)nn2-c2ccccc2)[C@H](c2cc(F)cc(F)c2)C1 [Example 367, 1-((3S,4R)-4-(3,5-difluorophenyl)-1-(2-methoxyethyl)pyrrolidin-3-yl)-3-(4-methyl-1-phenyl-3-((R)-3,3,3-trifluoro-2-hydroxypropoxy)-1H-pyrazol-5-yl)urea] |
| < 100 | COCCN1C[C@@H](NC(=O)Nc2c(C)c(OC[C@H](C)O)nn2-c2ccccc2)[C@H](c2ccc(F)cc2)C1 [Example 368, 1-((3S,4R)-4-(4-fluorophenyl)-1-(2-methoxyethyl)pyrrolidin-3-yl)-3-(3-((S)-2-hydroxypropoxy)-4-methyl-1-phenyl-1H-pyrazol-5-yl)urea] |
| < 100 | COCCN1C[C@@H](NC(=O)Nc2c(C)c(OC[C@H](O)C(F)(F)F)nn2-c2ccccc2)[C@H](c2cc(F)cc(F)c2)C1 [Example 369, 1-((3S,4R)-4-(3,5-difluorophenyl)-1-(2-methoxyethyl)pyrrolidin-3-yl)-3-(4-methyl-1-phenyl-3-((S)-3,3,3-trifluoro-2-hydroxypropoxy)-1H-pyrazol-5-yl)urea] |
| < 100 | COCCN1C[C@@H](NC(=O)Nc2c(Cl)c(OCC(C)(C)O)nn2-c2ccccc2)[C@H](c2cc(F)cc(F)c2)C1 [Example 370, 1-(4-chloro-3-(2-hydroxy-2-methylpropoxy)-1-phenyl-1H-pyrazol-5-yl)-3-((3S,4R)-4-(3,5-difluorophenyl)-1-(2-methoxyethyl)pyrrolidin-3-yl)urea] |
| < 100 | COCCN1C[C@@H](NC(=O)Nc2c(Cl)c(OCC(C)(C)O)nn2-c2ccccc2)[C@H](c2ccc(F)cc2)C1 [Example 371, 1-(4-chloro-3-(2-hydroxy-2-methylpropoxy)-1-phenyl-1H-pyrazol-5-yl)-3-((3S,4R)-4-(4-fluorophenyl)-1-(2-methoxyethyl)pyrrolidin-3-yl)urea] |
| < 100 | COCCN1C[C@@H](NC(=O)Nc2c(Cl)c(OC[C@@H](C)O)nn2-c2ccccc2)[C@H](c2ccc(F)c(F)c2)C1 [Example 372, 1-(4-chloro-3-((R)-2-hydroxypropoxy)-1-phenyl-1H-pyrazol-5-yl)-3-((3S,4R)-4-(3,4-difluorophenyl)-1-(2-methoxyethyl)pyrrolidin-3-yl)urea] |
| < 100 | COCCN1C[C@@H](NC(=O)Nc2c(Cl)c(OC[C@@H](C)O)nn2-c2ccccc2)[C@H](c2cc(F)cc(F)c2)C1 [Example 373, 1-(4-chloro-3-((R)-2-hydroxypropoxy)-1-phenyl-1H-pyrazol-5-yl)-3-((3S,4R)-4-(3,5-difluorophenyl)-1-(2-methoxyethyl)pyrrolidin-3-yl)urea] |
